# In patent publication US8586551B2, “18-membered macrocycles and analogs thereof” (Optimer Pharmaceuticals, Inc., priority 2005, dated 2013):
# Key:
# Clostridium species = assay: MIC against anaerobes: Clostridium species; format: cell-based; conditions: Clostridium species (19)
# Procedure: (§1) The in vitro activity of OPT-80 was determined against 350 anaerobes. The experimental procedure for which is outlined in Antimicrobial Agents and Chemotherapy, 2004, 48: 4430-4434, which is hereby incorporated by reference in its entirety.
# (§2) All organisms, including the 21 C. difficile strains, were separate isolates and not clonally related. All quality-control gram-negative and -positive strains recommended by NCCLS were included with each run: in every case, results (where available) were in range.
# Enterococcus species = assay: MIC against intestinal bacteria: Enterococcus species; format: cell-based; conditions: Enterococcus species (21)
# Bacteroides fragilis = assay: MIC against anaerobes: Bacteroides fragilis; format: cell-based; conditions: Bacteroides fragilis (19)
# Procedure: as §1, §2
# [1] = system: Miscellaneous gram-positive non-spore-forming rods; assay: MIC against anaerobes: miscellaneous gram-positive non-spore-forming rods; format: cell-based; conditions: Miscellaneous gram-positive non-spore-forming rods (20)
# [2] = system: Staphylococcus aureus and Staphylococcus epidermidis; assay: MIC against intestinal bacteria: Staphylococcus aureus and Staphylococcus epidermidis; format: cell-based; conditions: Staphylococcus aureus and Staphylococcus epidermidis (19)
# Clostridium innocuum = assay: MIC against intestinal bacteria: Clostridium innocuum; format: cell-based; conditions: Clostridium innocuum (9)
# Procedure: (§3) The in vitro activity of OPT-80 against intestinal bacteria was evaluated. The experimental procedure for which is outlined in Antimicrobial Agents and Chemotherapy, 2004, 48: 4898-4902, which is hereby incorporated by reference in its entirety.
# (§4) Antimicrobial concentration ranges were selected to encompass or surpass the levels that would be achieved in the gut (to the extent that this information is available), subject to the limitations of solubility of the drugs in the testing medium. The range of concentration of OPT-80 used during testing was 0.03 μg/ml to 1024 μg/ml.
# (§5) For analysis, the bacteria tested were generally placed into genus, species, or other groups with at least 10 isolates. The ranges and the MICs at which 50 and 90% of isolates were inhibited were determined except for organisms with fewer than 10 strains tested, for which only the ranges are reported (Table 8).
# E. faecium = assay: MIC against other microorganisms: E. faecium
# [3] = system: All anaerobic gram-negative species; assay: MIC against intestinal bacteria: all anaerobic gram-negative species; format: cell-based
# [4] = system: Clostridium paraputrificum; assay: MIC against intestinal bacteria: Clostridium paraputrificum; format: cell-based; conditions: Clostridium paraputrificum (8)
# [5] = system: Fusobacterium species, miscellaneous; assay: MIC against anaerobes: Fusobacterium species, miscellaneous; format: cell-based; conditions: miscellaneous (14)
# Procedure: as §1, §2
# S. aureus = assay: MIC against other microorganisms: S. aureus
# Veillonella spp. = assay: MIC against intestinal bacteria: Veillonella; format: cell-based; conditions: Veillonella spp. (10)
# Procedure: as §3, §4, §5
# Clostridium bolteae = assay: MIC against intestinal bacteria: Clostridium bolteae; format: cell-based; conditions: Clostridium bolteae (7)
# Clostridium bifermentans = assay: MIC against intestinal bacteria: Clostridium bifermentans; format: cell-based; conditions: Clostridium bifermentans (9)
# 453 bacterial isolates = assay: MIC against intestinal bacteria: total for all strains; format: cell-based
# Finegoldia magna = assay: MIC against anaerobes: Finegoldia magna; format: cell-based; conditions: Finegoldia magna (15)
# Micromonas micros = assay: MIC against anaerobes: Micromonas micros; format: cell-based; conditions: Micromonas micros (14)
smiles,measurement,setting,value
"CCc1c(Cl)c(O)c(Cl)c(O)c1C(=O)O[C@H]1[C@H](O)[C@H](OC)[C@H](OCC2=CC=CC[C@H](O)C(C)=C[C@H](CC)[C@@H](O[C@@H]3OC(C)(C)[C@@H](OC(=O)C(C)C)[C@H](O)[C@@H]3O)C(C)=CC(C)=CC[C@@H]([C@@H](C)O)OC2=O)O[C@@H]1C [R-Tiacumicin B, 3-[[[6-Deoxy-4-O-(3,5-dichloro-2-ethyl-4,6-dihydroxybenzoyl)-2-O-methyl-β-D-mannopyranosyl]oxy]-methyl]-12(R)-[[6-deoxy-5-C-methyl-4-O-(2-methyl-1-oxopropyl)-β-D-lyxo-hexopyranosyl]oxy]-11(S)-ethyl-8(S)-hydroxy-18(S)-(1(R)-hydroxyethyl)-9,13,15-trimethyloxacyclooctadeca-3,5,9,13,15-pentaene-2-one]",MIC50,Clostridium species,< 0.016 µg/mL
same,MIC90,Clostridium species,0.03 µg/mL
same,MIC50,Enterococcus species,8 µg/mL
same,MIC90,Enterococcus species,8 µg/mL
same,MIC range,Enterococcus species,2.0 to 16 µg/mL
same,MIC50,Bacteroides fragilis,> 128 µg/mL
same,MIC90,Bacteroides fragilis,> 128 µg/mL
same,MIC50,[1],< 0.125 µg/mL
same,MIC90,[1],16 µg/mL
same,MIC range,[1],<0.016 to 16 µg/mL
same,MIC50,[2],0.5 µg/mL
same,MIC90,[2],2 µg/mL
same,MIC range,[2],0.25 to 2 µg/mL
same,MIC range,Clostridium innocuum,32 to 128 µg/mL
same,MIC,E. faecium; Enterococcus faecium,1 µg/mL
same,MIC,"E. faecium; Strain ID # 8, E. faecium Vanc. resistant",1 µg/mL
same,MIC90,[3],> 1020 µg/mL
same,MIC50,[3]; All anaerobic gram-negative species (111),256 µg/mL
same,MIC range,[4],0.06 to 8 µg/mL
same,MIC50,[5],> 128 µg/mL
same,MIC90,[5],> 128 µg/mL
same,MIC,"S. aureus; Staphylococcus aureus, ATCC29213",4 µg/mL
same,MIC,"S. aureus; Staphylococcus aureus, MRSA",4 µg/mL
same,MIC,"S. aureus; Strain ID # 3, S. aureus, (MRSA)",4 µg/mL
same,MIC50,Veillonella spp.,32 µg/mL
same,MIC90,Veillonella spp.,128 µg/mL
same,MIC range,Veillonella spp.,16 to 128 µg/mL
same,MIC range,Clostridium bolteae,1 to 64 µg/mL
same,MIC range,Clostridium bifermentans,0.06 µg/mL
same,MIC90,453 bacterial isolates,1020 µg/mL
same,MIC50,453 bacterial isolates; Total for all strains (453),8 µg/mL
same,MIC50,Finegoldia magna,1 µg/mL
same,MIC90,Finegoldia magna,1 µg/mL
same,MIC range,Finegoldia magna,0.25 to 2.0 µg/mL
same,MIC range,Micromonas micros,<0.016 to 0.06 µg/mL
same,MIC50,Micromonas micros; Parvimonas micra,0.03 µg/mL
same,MIC90,Micromonas micros; Parvimonas micra,0.06 µg/mL
